The target of test [1] is Vps34 (PIK3C3 lipid kinase) (Homo sapiens, UniProt Q8NEB9). Put plainly: Biochemical Vps34 lipid kinase assay (ADP-Glo). The conditions noted are these: for remaining activity at 1 µM: 1 h, single dose 1 μM compound, residual activity compared to control (DMSO), read-out: VPS34_1microM_% of cntrl; for IC50: serial half-log dilution 10 μM to 0.3 nM, pIC50 = -log IC50 (M). Summed up: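 ADP-Glo luminescence assay of PIK3C3 (7.6 nM) with 50 µM substrate and 20 µM ATP (apparent Km) in HEPES pH 7.5, 100 mM NaCl, 3 mM MnCl2, CHAPS, DTT; 60 min, 30 °C. Single dose 1 µM (residual activity vs DMSO) or half-log series 10 µM-0.3 nM giving pIC50.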
Vps34 (PIK3C3 lipid kinase), sequence (Q8NEB9 whole entry, species assumed): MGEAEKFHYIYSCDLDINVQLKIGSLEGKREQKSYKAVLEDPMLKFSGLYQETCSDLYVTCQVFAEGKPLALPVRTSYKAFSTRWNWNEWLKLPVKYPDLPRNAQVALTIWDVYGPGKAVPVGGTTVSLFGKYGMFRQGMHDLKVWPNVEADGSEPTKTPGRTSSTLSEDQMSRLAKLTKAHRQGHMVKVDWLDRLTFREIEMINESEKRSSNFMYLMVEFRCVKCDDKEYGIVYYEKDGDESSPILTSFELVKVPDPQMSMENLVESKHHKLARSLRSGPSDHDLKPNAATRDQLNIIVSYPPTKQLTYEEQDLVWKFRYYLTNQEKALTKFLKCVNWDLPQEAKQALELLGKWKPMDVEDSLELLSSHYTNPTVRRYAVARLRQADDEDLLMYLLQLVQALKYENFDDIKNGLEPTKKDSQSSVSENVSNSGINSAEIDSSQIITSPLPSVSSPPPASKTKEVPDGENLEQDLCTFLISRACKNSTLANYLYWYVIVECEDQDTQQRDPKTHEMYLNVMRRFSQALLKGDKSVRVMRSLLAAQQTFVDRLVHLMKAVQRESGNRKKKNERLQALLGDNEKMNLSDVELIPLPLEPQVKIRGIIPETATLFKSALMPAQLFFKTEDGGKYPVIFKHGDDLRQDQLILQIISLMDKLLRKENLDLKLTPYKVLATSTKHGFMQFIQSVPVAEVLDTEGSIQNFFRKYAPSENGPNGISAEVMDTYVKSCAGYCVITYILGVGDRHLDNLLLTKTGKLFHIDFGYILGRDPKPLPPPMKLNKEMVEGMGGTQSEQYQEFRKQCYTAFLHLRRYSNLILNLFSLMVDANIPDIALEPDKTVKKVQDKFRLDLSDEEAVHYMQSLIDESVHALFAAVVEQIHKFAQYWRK

In test [2] the target is T1, EF2K (Homo sapiens, UniProt O00418).
T1 construct: host or cells: LN-229 cell lysate
T1 sequence (O00418 1-725): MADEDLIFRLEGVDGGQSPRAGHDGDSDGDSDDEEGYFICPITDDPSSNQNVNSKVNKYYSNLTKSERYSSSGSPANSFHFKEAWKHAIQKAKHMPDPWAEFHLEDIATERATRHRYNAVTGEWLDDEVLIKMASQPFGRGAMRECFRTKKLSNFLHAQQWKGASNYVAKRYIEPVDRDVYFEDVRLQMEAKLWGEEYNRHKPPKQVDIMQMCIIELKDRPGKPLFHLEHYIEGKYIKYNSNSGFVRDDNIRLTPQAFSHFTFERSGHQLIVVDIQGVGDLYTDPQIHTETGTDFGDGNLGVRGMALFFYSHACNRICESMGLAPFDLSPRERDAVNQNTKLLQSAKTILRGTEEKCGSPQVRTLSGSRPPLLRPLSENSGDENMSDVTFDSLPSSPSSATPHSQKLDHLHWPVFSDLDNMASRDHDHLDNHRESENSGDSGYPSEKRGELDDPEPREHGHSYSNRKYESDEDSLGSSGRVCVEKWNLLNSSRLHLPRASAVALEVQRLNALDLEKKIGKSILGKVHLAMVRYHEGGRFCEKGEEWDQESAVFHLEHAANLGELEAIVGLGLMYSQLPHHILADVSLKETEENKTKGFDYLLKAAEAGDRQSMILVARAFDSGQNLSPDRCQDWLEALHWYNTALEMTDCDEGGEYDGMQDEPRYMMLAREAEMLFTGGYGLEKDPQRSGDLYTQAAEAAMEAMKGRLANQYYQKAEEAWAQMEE
Description: EF2K cell-based assay (P-EF2 AlphaLISA, 2-deoxyglucose stimulated MCF10A cells). The settings on record: 2.5 mM 2-deoxyglucose stimulated, P-EF2 Thr56, pIC50 = -log IC50 (M), read-out: eEF2K_C_PThr56 pIC50 (converted). Summed up:
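MCF10A cells, after 24 h culture, treated 1 h with compound then stimulated 4 h with 2.5 mM 2-deoxyglucose to activate AMPK. Lysates in M-PER with protease/phosphatase inhibitors assayed for P-EF2 by AlphaLISA; pIC50 = −log IC50 (M).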
(In Alpha technology, singlet oxygen from a donor bead excites a nearby acceptor bead.)

Test [3] has as its target T1, EF2K. Description: Biochemical EF2K lysate-based kinase assay (AlphaLISA p-eEF2 Thr56). The settings on record: pIC50 = -log IC50 (M), read-out: eEF2K_C_alphalisa pIC50 (converted). Summed up:
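LN-229 glioblastoma lysate supplied both EF2K and eEF2 substrate; compound incubated 15 min at room temperature in pH 6.6 buffer with 10 mM Mg2+ and 10 mM ATP. EDTA-stopped; phospho-eEF2 Thr56 quantified by AlphaLISA sandwich, final read after overnight. Values as pIC50.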

Consider `CN1CCCNC(=O)CC2CCN(CC2)Cc2cccc(c2)Nc2nccc(n2)-c2ccc1nc2` [Compound 125], for which, in test [1], the remaining activity at 1 µM stood at 28.4%. In addition, the IC50 in test [1] is 3.39e-07 M; on EF2K [2] it was more than 3.02e-05 M; on EF2K [3], 1.58e-05 M.

Consider `NC(=O)C1CN2CCN1CC(=O)NCCCNc1ccc(cn1)-c1ccnc(n1)Nc1cccc(c1)C2` (stereo not shown) [Compound 126], for which the remaining activity at 1 µM in test [1] amounted to 4.95%. Besides, the IC50 in test [1] was 7.59e-08 M; at EF2K [2], more than 3.02e-05 M; at EF2K [3], 1.74e-07 M.

For the compound `CN1CCCNc2ccc(cn2)-c2ccnc(n2)Nc2cccc(c2)CN2CCN(CC1=O)C(=O)C2` [Compound 127], the remaining activity at 1 µM in test [1] was 19.2%. Besides, the figures for the IC50 (in test [1]; on EF2K [2]; on EF2K [3]) were 3.55e-07 M, more than 3.02e-05 M and 3.72e-06 M, respectively.

Regarding `CN1CCCN(C)c2ccc(cn2)-c2ccnc(n2)Nc2cccc(c2)CN2CCNC(CC1=O)C2` (stereo not shown) [Compound 128], the remaining activity at 1 µM in test [1] is 5.81%. Besides, the IC50 in test [1] is 1.02e-07 M; on EF2K [2] it was 2.63e-05 M; at EF2K [3], 1.82e-06 M.

On to `CN1CCCN(C)c2ccc(cn2)-c2ccnc(n2)Nc2cccc(c2)CN2CCN(C)C(CC1=O)C2` (stereo not shown) [Compound 129], for which the remaining activity at 1 µM in test [1] turned out to be 9.26%. The figures for the IC50 (in test [1]; at EF2K [2]; on EF2K [3]) were 4.68e-07 M, 9.33e-06 M and 9.55e-07 M, respectively.

As to `O=C1NCCCNc2ccc(cn2)-c2ccnc(n2)Nc2cccc(c2)CN2CCN1CC2` [Compound 130], in test [1], the remaining activity at 1 µM was 21%. Further, the IC50 is 2.4e-07 M in test [1], more than 3.02e-05 M on EF2K [2] and more than 3.02e-05 M on EF2K [3].

On to `CN1CCN(C)c2ccc(cn2)-c2ccnc(n2)Nc2ccc(O)c(c2)CN2CCN(CC2)CC1=O` [Compound 131], for which, in test [1], the remaining activity at 1 µM was 17.3%. Further, the figures for the IC50 (in test [1]; at EF2K [2]; on EF2K [3]) were 1.74e-07 M, 7.59e-06 M and 4.57e-07 M, respectively.

With `O=C1CN2CCN(CC2)Cc2cccc(c2)Nc2nccc(n2)-c2ccc(nc2)CN(C(=O)C(F)(F)F)CCN1` [Compound 132], the remaining activity at 1 µM in test [1] was 7.12%. Also, the results for the IC50 (in test [1]; on EF2K [2]; on EF2K [3]) were 1.91e-07 M, 3.98e-06 M and 6.92e-08 M, respectively.

With `CS(=O)(=O)N1CCNC(=O)CN2CCN(CC2)Cc2cccc(c2)Nc2nccc(n2)-c2ccc(nc2)C1` [Compound 133], the remaining activity at 1 µM in test [1] came to 14.6%. The IC50 in test [1] was 1.48e-07 M; on EF2K [2], more than 1e-05 M; on EF2K [3] it was 2.57e-06 M.

On to `NS(=O)(=O)N1CCNC(=O)CN2CCN(CC2)Cc2cccc(c2)Nc2nccc(n2)-c2ccc(nc2)C1` [Compound 134], for which, in test [1], the remaining activity at 1 µM was determined as 4.78%. In addition, the IC50 is 6.46e-08 M in test [1], more than 1e-05 M on EF2K [2] and 1.29e-06 M at EF2K [3].

The record behind these values is US10017509B2, “Macrocylic pyrimidine derivatives” (Janssen Pharmaceutica NV, priority 2014, dated 2018).
